In PubChem BioAssay (NCI):
“And” between values parts separate entries of the source, which are not always exact repeats. Identical values can stand only once.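 Tested at 5 concentrations; 48 h exposure; 96-well plates; endpoints linearly interpolated, else capped at highest concentration. GI50: concentration for 50% inhibition of growth. The concentration for full growth arrest is given as TGI.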

Legend:
Assay in all cases: growth of human tumour cells (NCI), 48 h
[1] = system: COLO 205 colon
[2] = system: MALME-3M melanoma
[3] = system: CAKI-1 renal
[4] = system: NCI-H522 lung
[5] = system: SN12C renal
[6] = system: SK-MEL-5 melanoma
[7] = system: HS 578T breast
[8] = system: SK-OV-3 ovarian
[9] = system: MOLT-4 leukemia

SMILES	TGI [1] [µM]	GI50 [2] [µM]	TGI [2]	TGI [3] [µM]	TGI [4] [µM]	TGI [5] [µM]	TGI [6] [µM]	TGI [7] [µM]	TGI [8] [µM]	TGI [9] [µM]	GI50 [3] [µM]	GI50 [4] [µM]	GI50 [5] [µM]	GI50 [7] [µM]	GI50 [8] [µM]	GI50 [9] [µM]	GI50 [6] [µM]
CCC1(O)CC(OC2CC(N(C)C)C(OC3CC(O)C(OC4CCC(=O)C(C)O4)C(C)O3)C(C)O2)c2c(O)c3c(c(O)c2C1C(=O)OC)C(=O)c1cccc(O)c1C3=O (stereo unspecified)	0.124	0.0106	0.0667 µM and 0.0267 µM	0.0098	0.0549	0.175	0.0261	–	–	–	–	–	–	–	–	–	–
Cc1sc2nc3n(c(=O)c2c1C)N=C(c1ccc([N+](=O)[O-])cc1)CS3	> 100	–	> 100 µM	> 100	> 100	> 100	> 100	> 100	> 100	> 100	–	–	–	–	–	–	–
C#CCCCC(=O)N(C(=O)CS(=O)CC)c1ccccc1 (stereo unspecified)	> 100	–	> 100 µM	> 100	> 100	> 100	> 100	> 100	> 100	> 100	–	–	–	–	–	–	–
C/C=C1\CC(C(=O)OCC)CCCCCCCCCCC1=O (stereo unspecified)	> 100	–	> 100 µM	> 100	81.5	> 100	> 100	> 100	> 100	> 100	–	–	–	–	–	–	–
Cc1cccc(NC2=NCCO2)c1Cl	> 100	–	> 100 µM	–	–	> 100	> 100	> 100	> 100	> 100	–	–	–	–	–	–	–
C[N+](C)([O-])CCCNc1ccnc2cccc([N+](=O)[O-])c12	46.4	–	87.6 µM	> 100	28	> 100	33.4	77.6	> 100	67.6	–	–	–	–	–	–	–
Cc1nc2c(=O)[nH]c3ccc(Cl)cc3c2o1	> 100	–	> 100 µM	> 100	> 100	> 100	> 100	> 100	> 100	> 100	–	–	–	–	–	–	–
CC1CC[C@@]2(OC1)OC1C[C@H]3[C@@H]4CCC5CC(O)CC[C@]5(C)[C@H]4C/C(=N\N(C)C)[C@]3(C)C1[C@@H]2C (stereo partly specified)	45	–	> 100 µM	–	–	64.7	53.3	97.7	47	> 100	–	–	–	–	–	–	–
COc1ccc(N2C(=O)C3CC4=CC(=O)C[C@H]4[C@H]32)cc1 (stereo partly specified)	> 100	–	–	87.6	–	> 100	–	> 100	> 100	> 100	–	–	–	–	–	–	–
COC(=O)[C@H](CCSC)NC(=O)c1ccc(CNC(=O)/C(C)=C/c2ccccc2)cc1	> 100	–	29.5 µM	> 100	32.5	> 100	> 100	–	> 100	> 100	–	–	–	–	–	–	–
COc1ccc(C[C@@H]2OC3(C=CC(=O)C=C3)O[C@H]2Cc2ccc(OC)cc2)cc1	2.79	–	4.22 µM	1.38	0.33	3.16	2.94	23.3	13.5	2.01	–	–	–	–	–	–	–
O=S(=O)(/N=C(\NO)Nc1ccc(Cl)cc1)c1ccc(-c2ccccn2)s1	> 100	–	96.8 µM	66	31.8	72.9	> 100	> 100	> 100	> 100	–	–	–	–	–	–	–
Cc1ccc2c(=O)c(-c3n[nH]c(=S)s3)c[nH]c2n1	> 100	–	> 100 µM	> 100	> 100	> 100	> 100	> 100	–	> 100	–	–	–	–	–	–	–
CC1(C)c2ccccc2C(O)C12CCC(=O)CC2 (stereo unspecified)	> 100	–	> 100 µM	–	> 100	> 100	> 100	> 100	> 100	–	–	–	–	–	–	–	–
C=CC(Br)(CBr)CCC(Br)C(C)C (stereo unspecified)	19.8	–	28.1 µM	16.3	3.46	27.2	17.7	7.73	30.2	5.21	–	–	–	–	–	–	–
CC1(C)C2CCC(N)(C2)C1O (stereo unspecified)	> 100	–	–	> 100	–	> 100	> 100	–	> 100	> 100	–	–	–	–	–	–	–
Brc1cccc[n+]1-c1ccc2cc(-[n+]3ccccc3Br)ccc2c1	> 100	–	72.7 µM	> 100	> 100	> 100	> 100	> 100	55.6	–	–	–	–	–	–	–	–
CN(C)CCn1nc(N)c2nc3cc(C(F)(F)F)ccc3nc21	> 100	–	> 100 µM	> 100	> 100	> 100	> 100	> 100	> 100	> 100	–	–	–	–	–	–	–
OC(CN1CCCCC1)c1ccc(/C=C/c2ccc(Cl)cc2)cc1 (stereo unspecified)	36	–	> 100 µM	–	72.7	> 100	43.8	> 100	> 100	> 100	–	–	–	–	–	–	–
COc1cc2c(cc1OCCCCCOc1cc3c(cc1OC)C(=O)N1CCC[C@H]1CN3)N=C[C@@H]1CCCN1C2=O	> 100	–	21.6 µM	44.1	3.65	18.7	12.2	50.4	> 100	9.24	–	–	–	–	–	–	–
COc1ccccc1NS(=O)(=O)c1ccc2ncn(NS(=O)(=O)c3ccc(Cl)cc3)c(=O)c2c1	> 100	–	> 100 µM	> 100	> 100	> 100	–	> 100	> 100	> 100	–	–	–	–	–	–	–
COc1cc2c(c(OC)c1OC)-c1ccc(SC)cc1C(=O)CC2	–	–	> 21.9 µM	> 100	–	> 100	> 100	> 100	< 0.01	> 100	–	–	–	–	–	–	–
COc1ccc2[nH]c(O)c(/C=c3/cc4c(c(-c5ccc(F)cc5)n3)=Nc3ccccc3-4)c2c1	–	2.4	4.6 µM	36.8	5.19	18.8	15.8	7.48	33.8	5.21	18.2	1.86	4.19	2.02	17.2	1.97	3.47
CC(C)c1cccc(C(C)C)c1OS(=O)(=O)NC(=O)OC(C(F)(F)F)C(F)(F)F	> 100	–	> 100 µM	> 100	> 100	> 100	> 100	> 100	> 100	55.6	–	–	–	–	–	–	–

SMILES	TGI [1] [µM]	GI50 [2] [µM]	TGI [2]	TGI [3] [µM]	TGI [4] [µM]	TGI [5] [µM]	TGI [6] [µM]	TGI [7] [µM]	TGI [8] [µM]	TGI [9] [µM]	GI50 [3] [µM]	GI50 [4] [µM]	GI50 [5] [µM]	GI50 [7] [µM]	GI50 [8] [µM]	GI50 [9] [µM]	GI50 [6] [µM]
CCCC1(N)CC(OC)OC(C)C1O (stereo unspecified)	> 100	–	> 100 µM	> 100	> 100	> 100	> 100	> 100	> 100	> 100	–	–	–	–	–	–	–
CC1=CC(=O)/C(=C/n2c(=S)[nH]c3ccccc32)C(=O)O1	> 100	–	–	> 100	> 100	> 100	–	> 100	> 100	> 100	–	–	–	–	–	–	–
CC1CN=C(c2ccc(COc3ccc(C4=NCC(C)N4)cc3)cc2)N1 (stereo unspecified)	> 100	–	> 100 µM	> 100	> 100	> 100	> 100	> 100	> 100	> 100	–	–	–	–	–	–	–
OC1c2ccccc2C(O)C2OC12 (stereo unspecified)	> 100	–	> 100 µM	> 100	> 100	> 100	> 100	–	> 100	> 100	–	–	–	–	–	–	–
C=C1c2nc3ccccc3n2C=C(c2ccc(OC)cc2)N1c1ccc(OCCN2CCOCC2)cc1	> 57	–	27.6 µM	> 100	3.63	> 100	> 100	> 40	> 100	> 100	–	–	–	–	–	–	–
CC[C@H](C)C1=C(OC(C)=O)[N@+]2([O-])Oc3ccc(-c4c(OC(C)=O)c(OC(C)=O)c(-c5ccc(OC(C)=O)cc5)c(OC(C)=O)c4OC(C)=O)cc3O[C@]2([C@@H](C)CC)C(=O)N1OC(C)=O	15.8	–	> 50 µM	> 50	16	> 50	22.5	–	49.4	36	–	–	–	–	–	–	–
CC(=O)N(CN1C(=O)CCC1C(=O)O)c1ccccc1Cl (stereo unspecified)	> 100	–	> 100 µM	> 100	> 100	> 100	> 100	> 100	> 100	> 100	–	–	–	–	–	–	–
CN1C(=O)N(C)C2(CCN(CCCCCCF)CC2)C1=O	> 100	–	> 100 µM	> 100	> 100	> 100	> 100	–	> 100	–	–	–	–	–	–	–	–
COP(C)(=O)C(Cc1c[nH]c2ccccc12)NC(=O)OCc1ccccc1 (stereo unspecified)	> 100	–	> 100 µM	> 100	–	> 100	> 100	> 100	> 100	> 100	–	–	–	–	–	–	–
NC(N)=NCC(N)C(=O)O (stereo unspecified)	> 100	–	> 100 µM	> 100	> 100	> 100	> 100	> 100	> 100	–	–	–	–	–	–	–	–
CN1B(c2ccccc2)N(C)C(=O)N(C)C1=O	> 100	–	> 100 µM	> 100	–	> 100	> 100	> 100	> 100	–	–	–	–	–	–	–	–
C=CCC(CNC(=O)OCc1ccccc1)OC(=O)OCc1ccccc1 (stereo unspecified)	> 100	–	–	> 100	> 100	> 100	56	> 100	> 100	> 100	–	–	–	–	–	–	–
Cc1cc(O)c(C(C)C)cc1N=Cc1ccccc1O	42.3	–	28.4 µM	25.4	17.2	12.2	18.8	> 46.4	28.8	–	–	–	–	–	–	–	–
N=C(c1cccs1)C1(N2CCCCC2)CCCCC1	–	–	30.2 µM	32.9	30.9	88.6	–	> 100	46.8	30.9	–	–	–	–	–	–	–
O=[N+]([O-])c1cc(Cl)ccc1S(=O)(=O)N1CCCc2cc(Cl)ccc21	> 100	–	> 100 µM	> 100	–	> 100	> 100	> 100	> 100	> 100	–	–	–	–	–	–	–
CC(=O)O[C@H]1CC[C@H]2[C@@H]3CCC(C(C)=O)[C@H](C(=O)O)[C@H]3CC[C@]12C (stereo partly specified)	> 100	–	> 100 µM	> 100	> 100	–	> 100	> 100	> 100	> 100	–	–	–	–	–	–	–
CC(=O)OCC1OC(N2C(S)=C(C#N)C(c3ccco3)C(C(C)=O)=C2c2ccccc2)C(OC(C)=O)C(OC(C)=O)C1OC(C)=O (stereo unspecified)	> 100	–	> 100 µM	> 100	> 100	> 100	> 100	48.4	–	> 100	–	–	–	–	–	–	–
CCCCNC(=S)Nc1nc(C(=O)NNC(=O)c2ccccc2)cs1	27.3	–	38.8 µM	39	43.7	38	22.7	–	35.3	> 100	–	–	–	–	–	–	–
COc1ccccc1N=C1SCCN1C(=S)Nc1ccc(S(=O)(=O)/N=C/N(C)C)cc1	> 100	–	–	> 100	–	> 100	37	–	> 100	> 100	–	–	–	–	–	–	–
CCOP(=O)(OCC)C(C)(C)OC(=O)NC#N	> 100	–	> 100 µM	> 100	–	> 100	> 100	> 100	> 100	> 100	–	–	–	–	–	–	–
COC(=O)C(Cc1nc2ccccc2[nH]c1=O)C(=O)C(=O)Nc1cc(C(F)(F)F)ccc1Cl (stereo unspecified)	–	–	31.4 µM	33.4	19	54.8	56	43.2	> 100	48.2	–	–	–	–	–	–	–
OC(c1ccccc1)(c1cccnc1)C(O)(c1ccccc1)c1cccnc1 (stereo unspecified)	> 100	–	> 100 µM	> 100	> 100	> 100	> 100	> 100	> 100	–	–	–	–	–	–	–	–
CCN(CC)CCC(=O)c1ccc(Oc2ccc(F)cc2)cc1	33.7	–	34.9 µM	30.9	–	32.1	–	60.2	> 100	51.3	–	–	–	–	–	–	–
CN(C)c1ccc(/C=c2/c3cc([N+](=O)[O-])ccc3n3c2cc(-c2ccccc2)[n+]3C)cc1	1.48	–	1.18 µM	23.4	1.9	–	1.11	7.97	11.3	8.85	–	–	–	–	–	–	–
